Assay results: PubChem BioAssay AID2060506 (Molecular Pharmacology Branch, DTP, NCI, 2025)
pIC50: −log10 of the molar value.

Tested on: 598228-144-R-J1-PDC complex spheroid viability
Test: Anticancer human tumor 598228-144-R-J1-PDC patient-derived serous endometrial adenocarcinoma cell line growth inhibition [GQUAD]
Conditions: for pIC50: curve of first compound; for viability, T/C: stronger effect = lower value
Method in brief: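 Tumor cells were grown as complex spheroids with HUVEC endothelial cells and mesenchymal stem cells as stroma. G-quadruplex stabilizers were combined with targeted agents over half-log dilutions from near the clinical Cmax, or from 10 microM.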

[1] = second compound 0.0316 µM, first compound 0.000999 µM
[2] = second compound 0.0316 µM, first compound 0.00316 µM
[3] = second compound 0.0316 µM, first compound 0.00999 µM
[4] = second compound 0.0316 µM, first compound 0.0316 µM
[5] = second compound 0.0316 µM, first compound 0.0999 µM
[6] = second compound 0.0316 µM, first compound 0.316 µM
[7] = second compound 0.1 µM, first compound 0.000999 µM
[8] = second compound 0.1 µM, first compound 0.00316 µM
[9] = second compound 0.1 µM, first compound 0.00999 µM
[10] = second compound 0.1 µM, first compound 0.0316 µM
[11] = second compound 0.1 µM, first compound 0.0999 µM
[12] = second compound 0.1 µM, first compound 0.316 µM
[13] = second compound 0.316 µM, first compound 0.000999 µM
[14] = second compound 0.316 µM, first compound 0.00316 µM
[15] = second compound 0.316 µM, first compound 0.00999 µM
[16] = second compound 0.316 µM, first compound 0.0316 µM
[17] = second compound 0.316 µM, first compound 0.0999 µM
[18] = second compound 0.316 µM, first compound 0.316 µM
[19] = second compound 1 µM, first compound 0.000999 µM
[20] = second compound 1 µM, first compound 0.00316 µM
[21] = second compound 1 µM, first compound 0.00999 µM
[22] = second compound 1 µM, first compound 0.0316 µM
[23] = second compound 1 µM, first compound 0.0999 µM
[24] = second compound 1 µM, first compound 0.316 µM
[25] = second compound 3.16 µM, first compound 0.000999 µM
[26] = second compound 3.16 µM, first compound 0.00316 µM
[27] = second compound 3.16 µM, first compound 0.00999 µM
[28] = second compound 3.16 µM, first compound 0.0316 µM
[29] = second compound 3.16 µM, first compound 0.0999 µM
[30] = second compound 3.16 µM, first compound 0.316 µM
[31] = second compound 10 µM, first compound 0.000999 µM
[32] = second compound 10 µM, first compound 0.00316 µM
[33] = second compound 10 µM, first compound 0.00999 µM
[34] = second compound 10 µM, first compound 0.0316 µM
[35] = second compound 10 µM, first compound 0.0999 µM
[36] = second compound 10 µM, first compound 0.316 µM
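Also: spheroids exposed to the agents for one week before reading.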
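For viability, T/C in this document: percent of vehicle DMSO control viability so 100% = untreated growth.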

Cn1ncnc1[C@H]1c2n[nH]c(=O)c3cc(F)cc(c23)N[C@@H]1c1ccc(F)cc1 + Cc1cnc(CNC(=O)c2c(=O)c3ccc(N4CCCN(C)CC4)nc3n3c2sc2ccccc23)cn1
pIC50 (second compound 0.0316 µM): < 6.50 | pIC50 (second compound 0.1 µM): < 6.50 | pIC50 (second compound 0.316 µM): < 6.50 | pIC50 (second compound 1 µM): < 6.50 | pIC50 (second compound 3.16 µM): 6.71 | pIC50 (second compound 10 µM): 9.00 | viability, T/C [1]: 81.7% | viability, T/C [2]: 94% | viability, T/C [3]: 87.3% | viability, T/C [4]: 68.3% | viability, T/C [5]: 74.4% | viability, T/C [6]: 54.7% | viability, T/C [7]: 79.1% | viability, T/C [8]: 70.3% | viability, T/C [9]: 61.2% | viability, T/C [10]: 56.4% | viability, T/C [11]: 60.3% | viability, T/C [12]: 63.1% | viability, T/C [13]: 66.3% | viability, T/C [14]: 76.4% | viability, T/C [15]: 56.8% | viability, T/C [16]: 55.9% | viability, T/C [17]: 59% | viability, T/C [18]: 55.1% | viability, T/C [19]: 55.5% | viability, T/C [20]: 54.3% | viability, T/C [21]: 56% | viability, T/C [22]: 64.2% | viability, T/C [23]: 59.3% | viability, T/C [24]: 64.1% | viability, T/C [25]: 57.5% | viability, T/C [26]: 53.8% | viability, T/C [27]: 52.9% | viability, T/C [28]: 58.5% | viability, T/C [29]: 57% | viability, T/C [30]: 42% | viability, T/C [31]: 40.5% | viability, T/C [32]: 45.7% | viability, T/C [33]: 59.1% | viability, T/C [34]: 38.1% | viability, T/C [35]: 51.7% | viability, T/C [36]: 32.5%

C#Cc1c(F)ccc2cc(O)cc(-c3ncc4c(N5CC6CCC(C5)N6)nc(OCC56CCCN5CC(F)C6)nc4c3F)c12 (stereo unspecified) + CN(C)c1ccc(Nc2c3ccc(NC(=O)CCN4CCCC4)cc3nc3cc(NC(=O)CCN4CCCC4)ccc23)cc1
pIC50 (second compound 0.0316 µM): < 5.00 | pIC50 (second compound 0.1 µM): < 5.00 | pIC50 (second compound 0.316 µM): < 5.00 | pIC50 (second compound 1 µM): < 5.00 | pIC50 (second compound 3.16 µM): < 5.00 | pIC50 (second compound 10 µM): 5.34 | viability, T/C [4]: 92.2% | viability, T/C (second compound 0.0316 µM, first compound 0.1 µM): 104% | viability, T/C [6]: 104% | viability, T/C (second compound 0.0316 µM, first compound 1 µM): 88.5% | viability, T/C (second compound 0.0316 µM, first compound 3.16 µM): 88.9% | viability, T/C (second compound 0.0316 µM, first compound 10 µM): 101% | viability, T/C [10]: 103% | viability, T/C (second compound 0.1 µM, first compound 0.1 µM): 118% | viability, T/C [12]: 104% | viability, T/C (second compound 0.1 µM, first compound 1 µM): 100% | viability, T/C (second compound 0.1 µM, first compound 3.16 µM): 88.5% | viability, T/C (second compound 0.1 µM, first compound 10 µM): 94.9% | viability, T/C [16]: 102% | viability, T/C (second compound 0.316 µM, first compound 0.1 µM): 94.1% | viability, T/C [18]: 115% | viability, T/C (second compound 0.316 µM, first compound 1 µM): 83.5% | viability, T/C (second compound 0.316 µM, first compound 3.16 µM): 102% | viability, T/C (second compound 0.316 µM, first compound 10 µM): 88% | viability, T/C [22]: 87% | viability, T/C (second compound 1 µM, first compound 0.1 µM): 102% | viability, T/C [24]: 110% | viability, T/C (second compound 1 µM, first compound 1 µM): 104% | viability, T/C (second compound 1 µM, first compound 3.16 µM): 98.9% | viability, T/C (second compound 1 µM, first compound 10 µM): 92.9% | viability, T/C [28]: 106% | viability, T/C (second compound 3.16 µM, first compound 0.1 µM): 101% | viability, T/C [30]: 93.7% | viability, T/C (second compound 3.16 µM, first compound 1 µM): 89.8% | viability, T/C (second compound 3.16 µM, first compound 3.16 µM): 83.3% | viability, T/C (second compound 3.16 µM, first compound 10 µM): 84.1% | viability, T/C [34]: 86.1% | viability, T/C (second compound 10 µM, first compound 0.1 µM): 89.3% | viability, T/C [36]: 93.9% | viability, T/C (second compound 10 µM, first compound 1 µM): 66% | viability, T/C (second compound 10 µM, first compound 3.16 µM): 64.2% | viability, T/C (second compound 10 µM, first compound 10 µM): 28.7%

Cc1[nH]c2ccccc2c1CCNCc1ccc(/C=C/C(=O)NO)cc1 + Cc1cnc(CNC(=O)c2c(=O)c3ccc(N4CCCN(C)CC4)nc3n3c2sc2ccccc23)cn1
pIC50 (second compound 0.0316 µM): 7.26 | pIC50 (second compound 0.1 µM): 7.69 | pIC50 (second compound 0.316 µM): 7.79 | pIC50 (second compound 1 µM): 7.94 | pIC50 (second compound 3.16 µM): > 9.00 | pIC50 (second compound 10 µM): > 9.00 | viability, T/C [1]: 104% | viability, T/C [2]: 116% | viability, T/C [3]: 85.1% | viability, T/C [4]: 67.3% | viability, T/C [5]: 32.4% | viability, T/C [6]: 0.76% | viability, T/C [7]: 80.7% | viability, T/C [8]: 71.8% | viability, T/C [9]: 61.1% | viability, T/C [10]: 41.6% | viability, T/C [11]: 26.2% | viability, T/C [12]: 0.82% | viability, T/C [13]: 69% | viability, T/C [14]: 66.9% | viability, T/C [15]: 53.3% | viability, T/C [16]: 43.7% | viability, T/C [17]: 18.4% | viability, T/C [18]: 0.28% | viability, T/C [19]: 62.7% | viability, T/C [20]: 67.1% | viability, T/C [21]: 49.7% | viability, T/C [22]: 29.8% | viability, T/C [23]: 0.26% | viability, T/C [24]: 0.37% | viability, T/C [25]: 49.4% | viability, T/C [26]: 49.4% | viability, T/C [27]: 39.9% | viability, T/C [28]: 0.32% | viability, T/C [29]: 0.34% | viability, T/C [30]: 0.25% | viability, T/C [31]: 20.6% | viability, T/C [32]: 16.2% | viability, T/C [33]: 0.43% | viability, T/C [34]: 0.33% | viability, T/C [35]: 0.34% | viability, T/C [36]: 0.31%
